What was measured:
M4 mAChR = biological target: T1, M4 mAChR (Homo sapiens, UniProt P08173); assay: cAMP TR-FRET assay with forskolin, M4-overexpressing CHO-K1 cells; format: cell-based
T1 construct: expressed in transfected cells; host or cells: CHO-K1
T1 sequence (P08173 1-479): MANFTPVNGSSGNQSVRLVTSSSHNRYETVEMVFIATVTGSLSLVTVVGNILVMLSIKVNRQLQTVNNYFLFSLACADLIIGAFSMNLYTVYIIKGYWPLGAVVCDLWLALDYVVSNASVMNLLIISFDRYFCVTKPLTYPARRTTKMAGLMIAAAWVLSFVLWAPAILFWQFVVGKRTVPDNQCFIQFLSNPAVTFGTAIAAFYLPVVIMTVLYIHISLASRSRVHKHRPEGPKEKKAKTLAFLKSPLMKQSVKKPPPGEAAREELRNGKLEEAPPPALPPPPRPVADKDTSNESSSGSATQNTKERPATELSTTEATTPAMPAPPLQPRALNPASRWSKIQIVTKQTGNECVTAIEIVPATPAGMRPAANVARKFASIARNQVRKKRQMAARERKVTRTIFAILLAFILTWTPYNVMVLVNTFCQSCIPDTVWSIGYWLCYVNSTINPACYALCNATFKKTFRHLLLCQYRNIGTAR
Source text: The M2 and M4 mACh receptors are Gi-coupled receptors which, upon activation, produce a decrease in cAMP. Assays were developed that measured the potency and efficacy of compounds at the M2 or M4 mAChR using M2- or M4-overexpressing CHO-K1 cell lines. Time-resolved fluorescence resonance energy transfer (TR-FRET) technology was used, where signal occurs as a result of transfer of energy if the donor molecule is in close proximity to an acceptor molecule when the molecules have bound to the molecule of interest. The cAMP detection is a competition binding assay, where cAMP produced by cells competes for binding with the labeled donor molecule to the anti-cAMP acceptor antibody. Due to the low basal levels of cAMP in the CHO-K1 cell line, forskolin was used to increase cAMP levels to enable assessment of agonist activity at the mAChR of interest.

[1] = biological target: T2, M3 muscarinic acetylcholine receptor (mAChR) (Homo sapiens, UniProt P20309); assay: FLIPR calcium assay (Fluo 8), M3-overexpressing CHO-K1 cells; format: cell-based
T2 construct: expressed in transfected cells; host or cells: CHO-K1
T2 sequence (P20309 whole entry): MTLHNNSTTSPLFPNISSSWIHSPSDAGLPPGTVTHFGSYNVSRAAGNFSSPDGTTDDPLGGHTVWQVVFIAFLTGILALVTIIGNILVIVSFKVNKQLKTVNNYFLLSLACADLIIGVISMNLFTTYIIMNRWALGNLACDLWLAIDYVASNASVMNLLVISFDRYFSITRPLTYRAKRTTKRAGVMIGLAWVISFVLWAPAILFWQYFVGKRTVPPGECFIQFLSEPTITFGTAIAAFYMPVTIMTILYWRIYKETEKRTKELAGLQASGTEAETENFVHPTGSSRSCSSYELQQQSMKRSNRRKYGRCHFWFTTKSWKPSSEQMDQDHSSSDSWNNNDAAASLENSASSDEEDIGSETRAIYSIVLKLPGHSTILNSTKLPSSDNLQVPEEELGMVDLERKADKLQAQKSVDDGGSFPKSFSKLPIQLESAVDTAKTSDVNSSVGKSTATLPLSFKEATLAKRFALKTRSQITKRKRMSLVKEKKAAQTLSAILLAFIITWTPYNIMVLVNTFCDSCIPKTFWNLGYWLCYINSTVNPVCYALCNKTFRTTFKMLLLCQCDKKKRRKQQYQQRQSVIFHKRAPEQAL
Description: Stimulation of a Gq-coupled G-protein coupled receptors (GPCRs), result in an efflux of calcium from the endoplasmic reticulum to the cytoplasm (Berridge, 1993), thus rendering this assay appropriate for the assessment of M1, M3 and M5 receptors. CHO-K1 cells overexpressing the M1, M3, or M5 muscarinic acetylcholine receptor (mAChR) were dispensed at 15,000 cells per well in 30 μl volume to 384-well plates and grown overnight at 37° C. in a 5% CO2 atmosphere. Fluo-8 Solution, 10 μl per well, was added to each well and incubated for 30 minutes at 37° C. in a 5% CO2 atmosphere. Compounds diluted in Hanks' balanced salt solution (HBSS) were transferred to the cell assay plate at 10 μl per well, and then read on a FLIPR instrument. EC50 and Emax figures were calculated from the resulting data for each receptor subtype.

SMILES	Emax (M4 mAChR; cAMP assay)	further results
CCOC(=O)N1CC2(CC[C@@H](N3CCC(c4cc(F)cnc4-c4cnccn4)CC3)C2)C1 (single isomer, unassigned) [Compound A11]	–	Emax (M4 mAChR; cAMP TR-FRET with forskolin): 80 to 100%
CCOC(=O)N1CC2(CC[C@H](N3CCC(c4cc(F)cnc4-c4cnccn4)CC3)C2)C1 (single isomer, unassigned) [Compound A12]	–	Emax (M4 mAChR; cAMP TR-FRET with forskolin): 80 to 100%
CCOC(=O)N1CC2(CC[C@@H](N3CCC(O)(c4cc(F)cnc4-c4cnccn4)CC3)C2)C1 (single isomer, unassigned) [Compound A14]	–	Emax (M4 mAChR; cAMP TR-FRET with forskolin): 80 to 100%
CCOC(=O)N1CC2(CC[C@H](N3CCN(c4cc(Cl)cnc4C4CCOCC4)CC3)C2)C1 (single isomer, unassigned) [Compound A16]	–	EC50 ([1]; FLIPR calcium): > 10 µM
CCOC(=O)N1CC2(CC[C@@H](N3CCN(c4cc(F)cnc4C4(F)CCOCC4)CC3)C2)C1 (single isomer, unassigned) [Compound A19]	–	Emax (M4 mAChR; cAMP TR-FRET with forskolin): 80 to 100%
CCOC(=O)N1CC2(CC[C@H](N3CCC(c4cc(F)cnc4-c4nncs4)CC3)C2)C1 (single isomer, unassigned) [Compound A21]	–	Emax (M4 mAChR; cAMP TR-FRET with forskolin): 80 to 100%
CCOC(=O)N1CC2(CC[C@@H](N3CCC(c4cc(F)cnc4-c4nncs4)CC3)C2)C1 (single isomer, unassigned) [Compound A22]	–	Emax (M4 mAChR; cAMP TR-FRET with forskolin): 80 to 100%
CCOC(=O)N1CC2(CC[C@@H](N3CCC(c4cc(F)cnc4-n4cc(C)nn4)CC3)C2)C1 (single isomer, unassigned) [Compound A23]	–	Emax (M4 mAChR; cAMP TR-FRET with forskolin): 80 to 100%
CCOC(=O)N1CC2(CC[C@H](N3CCC(c4cc(F)cnc4-n4cc(C)nn4)CC3)C2)C1 (single isomer, unassigned) [Compound A24]	–	Emax (M4 mAChR; cAMP TR-FRET with forskolin): 80 to 100%
CCOC(=O)N1CC2(CC(N3[C@@H]4CC[C@H]3CN(c3cc(F)cnc3-c3cnccn3)C4)CS2)C1 (single isomer, unassigned) [Compound A220]	–	EC50 ([1]; FLIPR): > 10 µM
CCOC(=O)N1CC2(CCC(N3[C@@H]4CC[C@H]3CN(c3cc(F)cnc3-c3cnccn3)C4)C2)C1 (single isomer, unassigned) [Compound A222]	–	EC50 ([1]; FLIPR): > 10 µM
CCOC(=O)N1CC2(CC[C@@H](N3CCN(c4cc(F)cnc4C4CCOC4)CC3)C2)C1 (single isomer, unassigned) [Compound A281]	80 to 100%	–
CCOC(=O)N1CC2(CCC(N3CCN(c4cccnc4N4CCC4)CC3)C2)C1 (stereo not shown) [Compound A4, ethyl 6-(4-(2-(azetidin-1-yl)pyridin-3-yl)piperazin-1-yl)-2-azaspiro[3.4]octane-2-carboxylate]	–	Emax (M4 mAChR; cAMP TR-FRET with forskolin): 80 to 100%
CCOC(=O)N1CC2(CC[C@@H](N3CCN(c4cccnc4OC4CCC4)CC3)C2)C1 [Compound A5, (R)-ethyl 6-(4-(2-cyclobutoxypyridin-3-yl)piperazin-1-yl)-2-azaspiro[3.4]octane-2-carboxylate]	–	EC50 ([1]; FLIPR calcium): > 10 µM
CCOC(=O)N1CC2(CC[C@@H](N3CCN(c4cc(F)cnc4-c4cscn4)CC3)C2)C1 [Compound A8, ethyl (6R)-6-[4-(5-fluoro-2-thiazol-4-yl-3-pyridyl)piperazin-1-yl]-2-azaspiro[3.4]octane-2-carboxylate]	–	Emax (M4 mAChR; cAMP TR-FRET with forskolin): 80 to 100%
CCOC(=O)N1CC2(CC[C@@H](N3CCN(c4cccnc4-c4cncc(C#N)c4)CC3)C2)C1 [Compound A27]	–	EC50 ([1]; FLIPR calcium): > 10 µM
CCOC(=O)N1CC2(CC[C@@H](N3CCN(c4cccnc4-c4cncc(OC(F)F)c4)CC3)C2)C1 [Compound A28]	–	Emax (M4 mAChR; cAMP TR-FRET with forskolin): 80 to 100%
CCOC(=O)N1CC2(CC[C@@H](N3CCN(c4cc(F)cnc4-c4cccc5cn(C)nc45)CC3)C2)C1 [Compound A66]	–	EC50 ([1]; FLIPR calcium): > 10 µM
CCOC(=O)N1CC2(CC[C@@H](N3CCN(c4cc(F)cnc4-c4ccc(=O)n(C(C)C)c4)CC3)C2)C1 [Compound A149]	–	EC50 ([1]; FLIPR): > 10 µM
CCOC(=O)N1CC2(CC[C@@H](N3CCN(c4cc(F)cnc4-c4ccccc4C(=O)NC)CC3)C2)C1 [Compound A151]	–	EC50 ([1]; FLIPR): > 10 µM
CCOC(=O)N1CC2(CC[C@@H](N3CCN(c4cc(F)cnc4-c4ccn(COCC[Si](C)(C)C)n4)CC3)C2)C1 [Compound A196]	–	EC50 ([1]; FLIPR): > 10 µM
CCOC(=O)N1CC2(CC[C@@H](N3CCN(c4cc(F)cnc4-c4c[nH]c(=O)[nH]c4=O)CC3)C2)C1 [Compound A211]	80 to 100%	–
CCOC(=O)N1CC2(CC[C@@H](N3CCN(c4cc(Cl)cnc4-c4cscn4)CC3)C2)C1 [Compound A212]	80 to 100%	–
CCOC(=O)N1CC2(CC[C@@H](N3CCN(c4cc(F)cnc4-c4ccns4)CC3)C2)C1 [Compound A213]	80 to 100%	–
CCOC(=O)N1CC2(CC[C@@H](N3CCN(c4cc(F)cnc4-c4cnsc4)CC3)C2)C1 [Compound A214]	80 to 100%	–
CCOC(=O)N1CC2(CCC(N3CCN(c4cc(F)cnc4-c4cnccn4)CC3)CC2)C1 [Compound A224]	–	EC50 ([1]; FLIPR): > 10 µM

SMILES	Emax (M4 mAChR; cAMP assay)	further results
CCOC(=O)N1CC2(C[C@H](N3CCN(c4cc(F)cnc4-c4cnccn4)CC3)CS2)C1 [Compound A225]	–	EC50 ([1]; FLIPR): > 10 µM
CCOC(=O)N1CC2(CC[C@@H](N3CCN(c4cc(F)cnc4-c4cc(F)cnc4F)CC3)C2)C1 [Compound A232]	–	EC50 ([1]; FLIPR): > 10 µM
CCOC(=O)N1CC2(CC[C@@H](N3CCN(c4cc(F)cnc4-c4nncs4)CC3)C2)C1 [Compound A236]	80 to 100%	–
CCOC(=O)N1CC2(C[C@H](N3CCN(c4cccnc4-c4nncs4)CC3)CO2)C1 [Compound A237]	–	EC50 ([1]; FLIPR): > 10 µM
CCOC(=O)N1CC2(CC[C@@H](N3CCN(c4cc(F)cnc4-c4nccnc4OC)CC3)C2)C1 [Compound A238]	19 to 49.9%	–
CCOC(=O)N1CC2(CC[C@@H](N3CCN(c4cc(Cl)cnc4-c4cnc(C)cn4)CC3)C2)C1 [Compound A239]	80 to 100%	–
CCOC(=O)N1CC2(CC[C@@H](N3CCN(c4cc(F)cnc4-c4ncc(F)cc4F)CC3)C2)C1 [Compound A240]	80 to 100%	–
CCOC(=O)N1CC2(CC[C@@H](N3CCN(c4cc(F)cnc4-c4ccc(C)nn4)CC3)C2)C1 [Compound A241]	50 to 79.9%	–
CCOC(=O)N1CC2(CC[C@@H](N3CCN(c4cc(F)cnc4-c4cccnn4)CC3)C2)C1 [Compound A242]	80 to 100%	–
CCOC(=O)N1CC2(CC[C@@H](N3CCN(c4cc(Cl)cnc4-c4ccnc(C)n4)CC3)C2)C1 [Compound A248]	–	EC50 ([1]; FLIPR): > 10 µM
CCOC(=O)N1CC2(CC[C@@H](N3CCN(c4cc(F)cnc4-n4cnnc4)CC3)C2)C1 [Compound A260]	80 to 100%	–
CCOC(=O)N1CC2(CC[C@@H](N3CCN(c4cc(F)cnc4OC4(C)CCOCC4)CC3)C2)C1 [Compound A261]	80 to 100%	–
CCOC(=O)N1CC2(CC[C@@H](N3CCN(c4cc(Cl)cnc4-n4nccn4)CC3)C2)C1 [Compound A262]	80 to 100%	–
CCOC(=O)N1CC2(CC[C@@H](N3CCN(c4cc(Cl)cnc4Br)CC3)C2)C1 [Compound A263]	80 to 100%	–
CCOC(=O)N1CC2(CC[C@@H](N3CCN(c4cccnc4-c4nncs4)CC3)C2)C1 [Compound A264]	80 to 100%	–
CCOC(=O)N1CC2(CC[C@@H](N3CCN(c4cc(F)cnc4-c4ncc(C)s4)CC3)C2)C1 [Compound A266]	80 to 100%	–
CCOC(=O)N1CC2(CC[C@@H](N3CCN(c4cc(F)cnc4-c4nc(C)cs4)CC3)C2)C1 [Compound A267]	50 to 79.9%	–
CCOC(=O)N1CC2(CC[C@@H](N3CCN(c4cc(Cl)cnc4-c4ncccc4F)CC3)C2)C1 [Compound A268]	80 to 100%	–
CCOC(=O)N1CC2(CC[C@@H](N3CCN(c4cc(Cl)cnc4-c4ncccc4Cl)CC3)C2)C1 [Compound A269]	80 to 100%	–
CCOC(=O)N1CC2(CC[C@@H](N3CCN(c4cc(F)cnc4-c4ccsn4)CC3)C2)C1 [Compound A270]	80 to 100%	–
CCOC(=O)N1CC2(CC[C@@H](N3CCN(c4cc(Cl)cnc4-c4cnc(C)nc4)CC3)C2)C1 [Compound A271]	80 to 100%	–
CCOC(=O)N1CC2(CC[C@@H](N3CCN(c4cc(F)cnc4C4CCC(F)(F)CC4)CC3)C2)C1 [Compound A275]	80 to 100%	–
CCOC(=O)N1CC2(CC[C@@H](N3CCN(c4cc(F)cnc4C4CC5(COC5)C4)CC3)C2)C1 [Compound A277]	80 to 100%	–
CCOC(=O)N1CC2(CC[C@@H](N3CCN(c4cccnc4C4CCOCC4)CC3)C2)C1 [Compound A278]	80 to 100%	–
CCOC(=O)N1CC2(CC[C@@H](N3CCN(c4cc(F)cnc4-c4nccs4)CC3)C2)C1 [Compound A286]	80 to 100%	–
CCOC(=O)N1CC2(CC[C@@H](N3CCN(c4cc(F)cnc4-c4ncccc4Cl)CC3)C2)C1 [Compound A287]	80 to 100%	–

From patent US20260098026A1, “M4 ACTIVATORS/MODULATORS AND USES THEREOF” (Cerevel Therapeutics, LLC, priority 2022, published 2026)
